Here are results for twelve molecules from patent publication EP2963103A1, “pH-sensitive nanocapsules” (Henkel AG & Co. KGaA, priority 2014, dated 2016).

The nature of data set [1]: Encapsulation efficiency EEsc / solid content, gravimetric after freeze-drying. It is filed as physicochemical. Conditions: fragrance encapsulated with Monomermischung S1. The text has this:
Der Feststoffgehalt (SC) wurde […] Proben bestimmt. Vorher wurden zwei verschiedene theoretische Feststoffgehalte berechnet. SC1 ohne die Masse des Riechstoffs und SC2 […] Bestimmung des […] und […] bei der Messung des Feststoffgehalts SC2 mitbestimmt. Unter […] bei Polymerisation kann durch den Vergleich des praktisch gemessenen Feststoffgehalts SC mit den oben genannten theoretischen Werten die Menge an […]. Der Anteil an […] zur Einsatzmenge bei […].: Encapsulation Efficiency) EEsc in Prozent angegeben. Der theoretisch berechneten Feststoffgehalt SC1 betrugt 14,3%. Die Angabe […] 1 zeigt, dass der Riechstoff eingeschlossen wurde und […]. Die […]. Die in den Beispielen 1 und 2 verwendete Monomermischung S1 wurde für die Verkapselung weiterer Riechstoffe verwendet und die […] oben […]. Die […]

For data set [2] the following is noted: Hansen-Parameter, δt^2 = δd^2 + δp^2 + δh^2. The text has this:
Damit die hydrophobe Verbindung effektiv verkapselt werden kann, ist es erforderlich, dass die Verbindung ausreichend hydrophob ist, so dass sie nicht mit dem aus den Monomeren gebildeten Polymer derart interagiert, dass sie dieses übermäßig quellen und dadurch für die Verbindung stärker permeabel werden lässt. Es ist daher bevorzugt, dass die mindestens eine hydrophobe Verbindung einen Hansen-Parameter δt von weniger als 20, insbesondere weniger als 19 hat; und/oder einen Hansen-Parameter δh von weniger als 10, insbesondere weniger als 6 hat.
Der Hansen-Parameter ist ein in der Polymerchemie weit verbreiteter Parameter zum Vergleich der Löslichkeit bzw. Mischbarkeit von verschiedenen Substanzen. Dieser Parameter wurde von Charles Hansen entwickelt, um die Löslichkeit eines Materials in einem anderen vorherzusagen. Dabei wird die Kohäsionsenergie einer Flüssigkeit betrachtet, welche in mindestens drei verschiedene Kräfte eingeteilt werden kann: (a) Dispersionskräfte zwischen den Molekülen δd, (b) Dipolare intermolekulare Kräfte zwischen den Molekülen δp und (c) Wasserstoffbrückenbindungen zwischen den Molekülen δh. Diese drei Parameter können zu einem Parameter δt zusammengefasst werden nach der Formel δt^2 = δd^2 + δp^2 + δh^2. Je ähnlicher der Hansen-Parameter von unterschiedlichen Materialien ist, desto besser sind diese ineinander mischbar.
Tabelle 3 gibt die Hansen-Parameter für die getesteten Riechstoffe an. Tabelle 3: Hansen-Parameter

For data set [3] the following is noted: Hansen-Parameter, cited from earlier work; for δp: dipolar forces; for δd: dispersion forces; for δh: hydrogen bonds.

With `CC(C)=CCCC(C)CCO` (centres unmarked) [Citronellol], in data set [1], the “Verkapselungseffizienz EEsc” value was 25%. Besides, in data set [2], the δt was 19,97. Also, in data set [3], the δp was 4,8, the δd is listed as 16,1 and the δh is 10,8.
For the molecule `C=CC(C)CCCC(C)(C)O` (centres unmarked) [Dihydromyrcenol], the “Verkapselungseffizienz EEsc” value in data set [1] is 4%. Also, the δt in data set [2] is 19,72. For the same molecule, in data set [3], the δp was 4,3, the δd is given as 16 and the δh was 10,7.
Take `CC/C=C\CC1=C(C)CCC1=O` [Jasmone]: the δt in data set [2] was 18,49. Moreover, in data set [3], the δp is recorded as 5,2, the δd was 17 and the δh is recorded as 5,1.
Regarding Ionon, the “Verkapselungseffizienz EEsc” value in data set [1] was 46%. In addition, the δt in data set [2] is given as 18,94. Moreover, in data set [3], the δp is given as 5,7, the δd was 17,1 and the δh is 5,8.
With `C/C=C/C(=O)C1=C(C)CCCC1(C)C` [β-Damascone], the “Verkapselungseffizienz EEsc” value in data set [1] amounted to 72%. Besides, in data set [2], the δt is on record as 18,84. In data set [3], the δp is reported as 4,9, the δd is 17,4 and the δh is 5,3.
For `OCCc1ccccc1` [Phenylethylalkohol], the δt in data set [2] is 24,09. In data set [3], the δp was 7,6, the δd is 18,8 and the δh is on record as 13.
As for Hexenol, in data set [1], the “Verkapselungseffizienz EEsc” value is reported as 0%. For the same molecule, in data set [3], the δp is listed as 6,7, the δd was 16 and the δh was 13,4.
With `CC(C=O)Cc1ccc(C(C)(C)C)cc1` (centres unmarked) [Lilial, 3-(4-tert-Butylphenyl)-2-methylpropanal], in data set [1], the “Verkapselungseffizienz EEsc” value turned out to be 77%. For the same molecule, in data set [2], the δt was 18,10. Further, in data set [3], the δp is reported as 2,3, the δd is recorded as 17,3 and the δh is given as 4,8.
As to `C/C=C\C(=O)C1C(C)=CCCC1(C)C` (stereo not drawn) [α-Damascone], the “Verkapselungseffizienz EEsc” value in data set [1] is 52%. Besides, in data set [2], the δt is 18,94. In data set [3], the δp is on record as 5,7, the δd is 17,1 and the δh is 5,8.
As to `CC(C)=CCC/C(C)=C/CO` [Geraniol], in data set [1], the “Verkapselungseffizienz EEsc” value came to 0%. In addition, in data set [2], the δt is given as 20,25.
For the molecule `CC(C)=CCCC(C)CC=O` (centres unmarked) [Citronellal], in data set [1], the “Verkapselungseffizienz EEsc” value worked out at 72%. For the same molecule, the δt in data set [2] is given as 18,01. For the same molecule, in data set [3], the δp is 5,9, the δd is recorded as 16,2 and the δh was 5,2.
Regarding `CC1=CCC2CC1C2(C)C` (stereo not drawn) [α-Pinen], the “Verkapselungseffizienz EEsc” value in data set [1] came to 91%. Besides, in data set [3], the δp is 4,3, the δd is 15,6 and the δh is given as 0.
